Assay results reported in article PMC9370394, “New Monocyclic Terpenoid Lactones from a Brown Algae Sargassum macrocarpum as Monoamine Oxidase Inhibitors” (Plants, 2022).

Molecular target: T1, human monoamine oxidase A (hMAO-A) (Homo sapiens, UniProt P21397)
T1 construct: gene MAOA
T1 sequence (P21397 1-527): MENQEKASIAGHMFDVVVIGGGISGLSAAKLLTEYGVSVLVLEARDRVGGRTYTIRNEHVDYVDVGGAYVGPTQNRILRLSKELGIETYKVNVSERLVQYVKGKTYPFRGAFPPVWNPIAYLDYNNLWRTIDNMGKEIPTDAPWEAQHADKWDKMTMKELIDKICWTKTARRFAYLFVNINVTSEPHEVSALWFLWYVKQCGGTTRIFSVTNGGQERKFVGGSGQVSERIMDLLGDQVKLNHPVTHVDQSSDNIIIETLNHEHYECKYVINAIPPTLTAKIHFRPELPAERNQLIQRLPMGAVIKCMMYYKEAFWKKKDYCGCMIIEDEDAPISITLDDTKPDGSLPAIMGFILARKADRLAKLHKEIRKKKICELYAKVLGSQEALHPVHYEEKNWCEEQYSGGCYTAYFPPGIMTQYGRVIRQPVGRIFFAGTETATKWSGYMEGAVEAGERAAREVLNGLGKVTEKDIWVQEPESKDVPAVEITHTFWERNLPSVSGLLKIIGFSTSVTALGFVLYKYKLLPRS
Test: MAO-Glo luminescence enzyme assay, single concentration of […]
Assay type: biochemical

CC(=O)CC/C=C1/CC[C@H](C(C)(C)O)OC1=O [compound 1, 6R-(2-hydroxypropan-2-yl)-3Z-(4-oxopentylidene)tetrahydro-2H-pyran-2-one]
inhibition at 200 µM: 42.2 ± 2.68%
